The target of the first experiment is T1, Aurora A kinase (Homo sapiens, UniProt O14965).
T1 sequence (O14965 1-403): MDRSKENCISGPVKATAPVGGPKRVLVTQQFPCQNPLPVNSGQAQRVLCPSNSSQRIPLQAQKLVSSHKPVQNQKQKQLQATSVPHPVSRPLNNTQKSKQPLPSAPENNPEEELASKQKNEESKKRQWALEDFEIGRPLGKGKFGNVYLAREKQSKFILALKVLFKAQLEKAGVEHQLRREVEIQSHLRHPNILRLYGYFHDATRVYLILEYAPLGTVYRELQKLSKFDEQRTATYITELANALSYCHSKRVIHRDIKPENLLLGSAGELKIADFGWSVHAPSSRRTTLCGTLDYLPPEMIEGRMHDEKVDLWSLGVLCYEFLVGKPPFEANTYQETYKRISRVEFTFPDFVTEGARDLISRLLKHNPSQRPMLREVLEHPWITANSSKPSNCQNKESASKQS
As to the kind of experiment: IC50 determination for inhibitors of Aurora A kinase (ELISA, GST-Histone H3 substrate). It is filed as biochemical. The conditions noted are these: mutant Aurora A kinase, 30 μM ATP, 40 minutes; read-out: IC50 Aurora A kinase inhibition. The protocol:
IC50 Determination for Inhibitors of Aurora A Kinase
Aurora A is a Serine Threonine Kinase Involved in Spindle Assembly and Chromosome Segregation.
The assay is a typically ELISA-type assay where substrate (GST-Histone H3) is coupled to the assay-plate and is phosphorylated by the kinase. Phosphorylation is detected by a mouse anti-Phosphopeptid mAb and an HRP-labeled anti-mouse pAb. The assay is validated for IC50-determination.
Kinase activities were measured by Enzyme-Linked Immunosorbent Assay (ELISA): Maxisorp 384-well plates (Nunc) were coated with recombinant fusion protein comprising residues 1-15 of HistoneH3 fused to the N-terminus of Glutathione-S-Transferase. Plates were then blocked with a solution of 1 mg/mL I-block (Tropix cat# T2015—highly purified form of casein) in phosphate-buffered saline. Kinase reactions were carried out in the wells of the ELISA plate by combining an appropriate amount of mutant Aurora A kinase with test compound and 30 μM ATP. The reaction buffer was […] Kinase Buffer (Cell Signaling cat # 9802) supplemented with 1 μg/mL I-block. Reactions were stopped after 40 minutes by addition of 25 mM EDTA (ethylenediaminetetraacetic acid). After washing, substrate phosphorylation was detected by addition of anti-phospho-Histone H3 (Ser 10) 6G3 mAb (Cell Signaling cat #9706) and sheep anti-mouse pAb-HRP (Amersham cat# NA931V), followed by colorimetric development with TMB (3,3′,5,5′-tetramethylbenzidine from Kirkegaard & Perry Laboratories). After readout of the absorbance, IC50 values were calculated using a non-linear curve fit (XLfit® software (ID Business Solution Ltd., Guilford, Surrey, UK)).
Background: ELISA stands for enzyme-linked immunosorbent assay.
For orientation: IC50 means the midpoint of a concentration-inhibition curve. With `Cc1ccc(Oc2nc(Nc3cc(C)[nH]n3)cc3ccccc23)cc1` [Example 14, (5-Methyl-1H-pyrazol-3-yl)-(1-p-tolyloxy-isoquinolin-3-yl)-amine], the IC50 was determined as 66 nM. The same measure, in the same setting: the value for `Cc1cc(Nc2cc3ccccc3c(Oc3ccccc3Cl)n2)n[nH]1` [Example 23, [1-(2-Chloro-phenoxy)-isoquinolin-3-yl]-(5-methyl-1H-pyrazol-3-yl)-amine] was 1660 nM; that for `CC(=O)Nc1ccc(Oc2nc(Nc3cc(C)[nH]n3)cc3ccccc23)cc1` [Example 59, N-{4-[-3-(5-Methyl-1H-pyrazol-3-ylamino)-isoquinolin-1-yloxy]-phenyl}-acetamide] was 39 nM; that for `CC(C)COc1nc(Nc2cc[nH]n2)cc2ccccc12` [Example 99, (1-Isobutoxy-isoquinolin-3-yl)-(1H-pyrazol-3-yl)-amine] was 1460 nM. On the same count and under the same terms, the value for `CCOCCOCCOc1nc(Nc2cc[nH]n2)cc2ccccc12` [Example 110, {1-[2-(2-Ethoxy-ethoxy)-ethoxy]-isoquinolin-3-yl}-(1H-pyrazol-3-yl)-amine] was 822 nM; that for `COc1cc2cc(Nc3cc(C)[nH]n3)nc(OC3CCCC3)c2cc1OC` [Example 117, (1-Cyclopentyloxy-6,7-dimethoxy-isoquinolin-3-yl)-(5-methyl-1H-pyrazol-3-yl)-amine] was 21 nM; that for `COc1ccc2c(-c3cnn(C)c3)nc(Nc3cc[nH]n3)cc2c1` [Example 135, [6-Methoxy-1-(1-methyl-1H-pyrazol-4-yl)-isoquinolin-3-yl]-(1H-pyrazol-3-yl)-amine] was 653 nM. Turning to `Cc1cc(Nc2cc3ccccc3c(-c3ccncc3)n2)n[nH]1` [Example 162, (5-Methyl-1H-pyrazol-3-yl)-(1-pyridin-4-yl-isoquinolin-3-yl)-amine], the IC50 turned out to be 330 nM. The same measure, in the same setting: the value for `COc1ccc2c(-c3ccc4ccccc4c3)nc(Nc3cc(C)[nH]n3)cc2c1` [Example 183, (5-Methyl-1H-pyrazol-3-yl)-(1-naphthalen-2-yl-6-methoxy-isoquinolin-3-yl)-amine] was 390 nM; that for `COc1cccc2c(-c3cccc(C#N)c3)nc(Nc3cc(C)[nH]n3)cc12` [Example 201, 3-[3-(5-Methyl-1H-pyrazol-3-ylamino)-5-methoxy-isoquinolin-1-yl]-benzonitrile] was 47 nM; that for `c1ccc2c(-c3ccsc3)nc(Nc3cc[nH]n3)cc2c1` [Example 241, (1H-Pyrazol-3-yl)-(1-thiophen-3-yl-isoquinolin-3-yl)-amine] was 946 nM. On the same count and under the same terms, to `c1ccc2c(-c3ccncc3)nc(Nc3cc[nH]n3)cc2c1` [Example 248, (1H-Pyrazol-3-yl)-(1-pyridin-4-yl-isoquinolin-3-yl)-amine] belongs 3440 nM; to `COc1ccc2c(-c3ccc4ccccc4c3)nc(Nc3cc[nH]n3)cc2c1` [Example 265, (6-Methoxy-1-naphthalen-2-yl-isoquinolin-3-yl)-(1H-pyrazol-3-yl)-amine], 2970 nM; to `COc1ccc2c(Nc3ccc(Br)cc3)nc(Nc3cc(C)[nH]n3)cc2c1` [Example 275, N^1-(4-Bromo-phenyl)-6-methoxy-N^3-(5-methyl-1H-pyrazol-3-yl)-isoquinoline-1,3-diamine], 43 nM. For `COc1ccc(Nc2nc(Nc3cc[nH]n3)cc3ccccc23)cc1OC` [Example 284, N^1-(3,4-Dimethoxy-phenyl)-N^3-(1H-pyrazol-3-yl)-isoquinoline-1,3-diamine], the IC50 was determined as 259 nM.

In the case of `Cc1cc(Nc2cc3ccccc3c(Nc3cccnc3)n2)n[nH]1` [Example 292, N^3-(5-methyl-1H-pyrazol-3-yl)-N^1-pyridin-3-yl-isoquinoline-1,3-diamine], the IC50 was 241 nM. On the same count and under the same terms, to `Cc1cc(Nc2cc3cc(OCCN4CCOCC4)ccc3c(-c3ccccc3)n2)n[nH]1` [Example 299, (5-Methyl-1H-pyrazol-3-yl)-[6-(2-morpholin-4-yl-ethoxy)-1-phenyl-isoquinolin-3-yl]-amine] belongs 297 nM. In the case of `Cc1cc(Nc2cc3ccccc3c(Sc3ccccc3)n2)n[nH]1` [Example 305, (5-Methyl-1H-pyrazol-3-yl)-(1-phenylsulfanyl-isoquinolin-3-yl)-amine], the half-maximal inhibitory concentration (IC50) stood at 497 nM. On the same count and under the same terms, the value for `COc1ccc2c(Sc3cccc(F)c3)nc(Nc3cc(C)[nH]n3)cc2c1` [Example 311, [1-(3-Fluoro-phenylsulfanyl)-6-methoxy-isoquinolin-3-yl]-(5-methyl-1H-pyrazol-3-yl)-amine] was 210 nM.

Another experiment deals with HCT 116 cells. As to the kind of experiment: Viability assay in HCT 116 cells (CellTiter-Glo). It counts as cell-based. The conditions noted are these: 120 h; HCT 116 human colon carcinoma cells, 5 days incubation. The protocol: Viability Assay in HCT 116 Cells
A viability assay was performed using the CellTiter-Glo® Luminescent Cell Viability Assay (see Promega Corporation's Technical Bulletin No. 288, pp. 1-11 [revised February, 2004] which is hereby incorporated by reference in its entirety). This assay is a homogeneous method of determining the number of viable cells in culture based on quantitation of the ATP present, an indicator of metabolically active cells. The assay is designed for use with multiwell formats, making it ideal for automated high-throughput screening (HTS), cell proliferation and cytotoxicity assays. The homogeneous assay procedure involves adding a single reagent (containing luciferase, luciferan substrate, and buffer) directly to cells cultured in serum-supplemented medium. Cell washing, removal of medium and multiple pipetting steps are not required. The system detects as few as 15 cells/well in a 384-well format in 10 minutes after adding reagent and mixing.
The homogeneous “add-mix-measure” format results in cell lysis and generation of a luminescent signal proportional to the amount of ATP present. The amount of ATP is directly proportional to the number of cells present in culture. The above-referenced assay generates a “glow-type” luminescent signal, produced by the luciferase reaction, which has a half-life generally greater than five hours, depending on cell type and medium used. The extended half-life eliminates the need to use reagent injectors and provides flexibility for continuous or batch mode processing of multiple plates. The unique homogeneous format avoids errors that may be introduced by other ATP measurement methods that require multiple steps.
HCT 116 cells (human colon carcinoma, ATCC-No. CCl-247) were cultivated in RPMI 1640 medium with GlutaMAX™ I (cell culture media that contains L-Alanyl-L-Glutamine [a stabilized form/source of L-Glutamine] from Invitrogen, Cat-No. 61870-010), 5% Fetal Calf Serum (FCS, Sigma Cat-No. F4135 (FBS)); 100 Units/ml penicillin/100 μg/ml streptomycin (=Pen/Strep from Invitrogen Cat. No. 15140). For the assay the cells were seeded in 384 well plates, 1000 cells per well, in the same medium. The next day the test compounds were added in various concentrations ranging from 30 μM to 0.0015 μM (10 concentrations, 1:3 diluted). After 5 days the viability assay was performed according to the instructions of the manufacturer. In brief: the cell-plate was equilibrated to room temperature for approximately 30 minutes and then the CellTiter-Glo™ reagent (which contains luciferase, luciferan substrate, and buffer) was added. The contents were carefully mixed for 15 minutes to induce cell lysis. After 45 minutes the luminescent signal was measured in Victor 2, (scanning multiwell spectrophotometer, Wallac).
1st. Day: • Medium: RPMI 1640 with GlutaMAX™ I (Invitrogen, Cat-No. 61870), 5% FCS (Sigma Cat.-No. F4135), Pen/Strep (Invitrogen, Cat No. 15140). • HCT116 (ATCC-No. CCl-247): 1000 cells in 60 μl per well of 384 well plate (Greiner 781098, μClear-plate white) • After seeding incubate plates 24 h at 37° C., 5% CO2 2nd. Day: Induction (Treatment with Compounds, 10 Concentrations):
In order to achieve a final concentration of 30 μM as highest concentration 3.5 μl of 10 mM compound stock solution were added directly to 163 μl media. Then step e) of the dilution procedure described below, was followed.
In order to achieve the second highest to the lowest concentrations, a serial dilution with dilution steps of 1:3 was followed according to the procedure (a-e) as described here below: a) for the second highest concentration add 10 μl of 10 mM stock solution of compound to 20 μl dimethylsulfoxide (DMSO) b) dilute 8×1:3 (always 10 μl to 20 μl DMSO) in this DMSO dilution row (results in 9 wells with concentrations from 3333.3 μM to 0.51 μM) c) dilute each concentration 1:47.6 (3.5 μl compound dilution to 163 μl media) […]
`COc1cc2cc(Nc3cc(C)[nH]n3)nc(OC3CCCC3)c2cc1OC` [Example 117, (1-Cyclopentyloxy-6,7-dimethoxy-isoquinolin-3-yl)-(5-methyl-1H-pyrazol-3-yl)-amine]: half-maximal inhibition (IC50) required 666 nM. Take `COc1ccc2c(-c3ccc4ccccc4c3)nc(Nc3cc(C)[nH]n3)cc2c1` [Example 183, (5-Methyl-1H-pyrazol-3-yl)-(1-naphthalen-2-yl-6-methoxy-isoquinolin-3-yl)-amine]: the IC50 came out at 4010 nM.

The compound `COc1ccc2c(Nc3ccc(Br)cc3)nc(Nc3cc(C)[nH]n3)cc2c1` [Example 275, N^1-(4-Bromo-phenyl)-6-methoxy-N^3-(5-methyl-1H-pyrazol-3-yl)-isoquinoline-1,3-diamine] returned a half-inhibitory concentration (IC50) of 995 nM.

(Values after patent US7572809B2, “Isoquinoline aminopyrazole derivatives” (Hoffmann-La Roche Inc., priority 2005, dated 2009).)
